Test results published in patent publication US20230167127A1, “COMPOUNDS AND THEIR USE IN THE TREATMENT OF BACTERIAL INFECTION” (Hoffmann-La Roche Inc., priority 2020, published 2023).
pIC50: −log10 of the molar value.

System: Escherichia coli ATCC 25922
Experiment: 50% growth inhibitory concentration (IC50) determination, Iso-Sensitest broth dilution
Format: cell-based
Details: Escherichia coli, ATCC25922, 16 h, strain Escherichia coli ATCC 25922; 10-point broth dilution, optical density at 600 nm over 16 h; read-out: Escherichia coli growth inhibition IC50
Summary of the method: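 Growth was tracked as optical density at 600 nm every 20 minutes for 16 h at 35±2° C. Compounds from DMSO stocks were serially diluted twofold over 10 points (e.g. 50–0.097 μM final) in Iso-Sensitest broth. Inhibition computed in log-phase growth to give IC50.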

SMILES	pIC50
Cc1nccc2c1CC(CNCCc1cn(-c3cnc4c(n3)NC(=O)CO4)c(=O)o1)C2 (stereo not shown) [Example 371, 6-[5-[2-[(1-methyl-6,7-dihydro-5H-cyclopenta[c]pyridin-6-yl)methylamino]ethyl]-2-oxo-1,3-oxazol-3-yl]-4H-pyrazino[2,3-b][1,4]oxazin-3-one]	> 7.01
Cc1ncc(F)c2c1CC(CN(C)CCC1CN(c3cnc4c(n3)NC(=O)CO4)C(=O)O1)C2 (stereo not shown) [Example 376, 6-[5-[2-[(4-Fluoro-1-methyl-6,7-dihydro-5H-cyclopenta[c]pyridin-6-yl)methyl-methylamino]ethyl]-2-oxo-1,3-oxazolidin-3-yl]-4H-pyrazino[2,3-b][1,4]oxazin-3-one]	> 7.01
O=C1COc2ncc(N3CC(CCNCC4Cc5c(F)cc(OCc6cc[nH]n6)c(F)c5C4)OC3=O)nc2N1 (stereo not shown) [Example 395, 6-[5-[2-[[4,7-difluoro-5-(1H-pyrazol-3-ylmethoxy)-2,3-dihydro-1H-inden-2-yl]methylamino]ethyl]-2-oxo-1,3-oxazolidin-3-yl]-4H-pyrazino[2,3-b][1,4]oxazin-3-one]	6.78
N#Cc1cc(OCc2cc[nH]n2)cc2c1CC(CNCCC1CN(c3cnc4c(n3)NC(=O)CO4)C(=O)O1)C2 (stereo not shown) [Example 404, 2-[[2-[2-oxo-3-(3-oxo-4H-pyrazino[2,3-b][1,4]oxazin-6-yl)-1,3-oxazolidin-5-yl]ethylamino]methyl]-6-(1H-pyrazol-3-ylmethoxy)-2,3-dihydro-1H-indene-4-carbonitrile; formic acid]	> 7.01
O=C1COc2ccc(N3CC(CCNCC4Cc5ccncc5C4)OC3=O)nc2N1 (stereo not shown) [Example 418, 6-[5-[2-(6,7-Dihydro-5H-cyclopenta[c]pyridin-6-ylmethylamino)ethyl]-2-oxo-1,3-oxazolidin-3-yl]-4H-pyrido[3,2-b][1,4]oxazin-3-one]	6.12
COCCNCCOc1nc(C)c2c(c1C)CC(CNCCC1CN(c3ccc4c(n3)NC(=O)CO4)C(=O)O1)C2 (stereo not shown) [Example 202, 6-[5-[2-[[3-[2-(2-methoxyethylamino)ethoxy]-1,4-dimethyl-6,7-dihydro-5H-cyclopenta[c]pyridin-6-yl]methylamino]ethyl]-2-oxo-1,3-oxazolidin-3-yl]-4H-pyrido[3,2-b][1,4]oxazin-3-one]	6.87
N#Cc1cc(OCC2(N)CC2)cc2c1CC(CNCCC1CN(c3cnc4c(n3)NC(=O)CO4)C(=O)O1)C2 (stereo not shown) [Example 186, 6-((1-aminocyclopropyl)methoxy)-2-(((2-(2-oxo-3-(3-oxo-3,4-dihydro-2H-pyrazino[2,3-b][1,4]oxazin-6-yl)oxazolidin-5-yl)ethyl)amino)methyl)-2,3-dihydro-1H-indene-4-carbonitrile]	> 7.01
CC(C)(CC1CN(c2ccc3c(n2)NC(=O)CO3)C(=O)O1)NCC1Cc2ccnc(Cl)c2C1 (stereo not shown) [Example 30, 6-[5-[2-[(1-chloro-6,7-dihydro-5H-cyclopenta[c]pyridin-6-yl)methylamino]-2-methylpropyl]-2-oxo-1,3-oxazolidin-3-yl]-4H-pyrido[3,2-b][1,4]oxazin-3-one; formic acid]	5.47
NC(=O)COc1cc(F)c2c(c1)CC(CNCCc1cn(-c3cnc4c(n3)NC(=O)CO4)c(=O)o1)C2 (stereo not shown) [Example 306, 2-[[7-fluoro-2-[[2-[2-oxo-3-(3-oxo-4H-pyrazino[2,3-b][1,4]oxazin-6-yl)-1,3-oxazol-5-yl]ethylamino]methyl]-2,3-dihydro-1H-inden-5-yl]oxy]acetamide; formic acid]	> 7.01
CC(N)COc1cc(C#N)c2c(c1)CC(CNCCC1CN(c3cnc4c(n3)NC(=O)CO4)C(=O)O1)C2 (stereo not shown) [Example 193, 6-(2-aminopropoxy)-2-(((2-(2-oxo-3-(3-oxo-3,4-dihydro-2H-pyrazine[2,3-b][1,4]oxazin-6-yl)oxazolidin-5-yl)ethyl)amino)methyl)-2,3-dihydro-1H-indene-4-carbonitrile; 2,2,2-trifluoroacetic acid]	> 7.01
O=C1COc2ccc(N3CC(CCCNC4Cc5cccc(F)c5C4)OC3=O)nc2N1 (stereo not shown) [Example 8, 6-[5-[3-[(4-fluoro-2,3-dihydro-1H-inden-2-yl)amino]propyl]-2-oxo-1,3-oxazolidin-3-yl]-4H-pyrido[3,2-b][1,4]oxazin-3-one; formic acid]	6.78
Cc1nc(OC[C@H](N)CO)c(C)c2c1CC(CNCCC1CN(c3ccc4c(n3)NC(=O)CO4)C(=O)O1)C2 (stereo partly drawn) [Example 234, 6-[5-[2-[[3-[(2R)-2-Amino-3-hydroxypropoxy]-1,4-dimethyl-6,7-dihydro-5H-cyclopenta[c]pyridin-6-yl]methylamino]ethyl]-2-oxo-1,3-oxazolidin-3-yl]-4H-pyrido[3,2-b][1,4]oxazin-3-one]	6.67
Cc1ncc(F)c2c1CC(NCCCc1cn(-c3cnc4c(n3)NC(=O)CO4)c(=O)o1)C2 (stereo not shown) [Example 302, 6-[5-[3-[(4-Fluoro-1-methyl-6,7-dihydro-5H-cyclopenta[c]pyridin-6-yl)amino]propyl]-2-oxo-1,3-oxazol-3-yl]-4H-pyrazino[2,3-b][1,4]oxazin-3-one; formic acid]	> 7.01
O=C1COc2ccc(N3CC(CCNCC4Cc5cccc(Cl)c5C4)OC3=O)nc2N1 (single isomer, unassigned; isomer a) [Example 6, 6-[5-[2-[(4-chloro-2,3-dihydro-1H-inden-2-yl)methylamino]ethyl]-2-oxo-1,3-oxazolidin-3-yl]-4H-pyrido[3,2-b][1,4]oxazin-3-one, Isomer A]	> 7.01
Cc1nc(OCC2CNC(=O)C2)c(C)c2c1CC(CNCCC1CN(c3ccc4c(n3)NC(=O)CO4)C(=O)O1)C2 (stereo not shown) [Example 102, 6-[5-[2-[[1,4-dimethyl-3-[(5-oxopyrrolidin-3-yl)methoxy]-6,7-dihydro-5H-cyclopenta[c]pyridin-6-yl]methylamino]ethyl]-2-oxo-1,3-oxazolidin-3-yl]-4H-pyrido[3,2-b][1,4]oxazin-3-one]	6.06
N[C@@H]1c2cccc(Cl)c2C[C@H]1CNCC[C@@H]1CN(c2cnc3c(n2)NC(=O)CO3)C(=O)O1 [Example 422, 6-[(5R)-5-[2-[[(1S,2S)-1-Amino-4-chloro-2,3-dihydro-1H-inden-2-yl]methylamino]ethyl]-2-oxo-1,3-oxazolidin-3-yl]-4H-pyrazino[2,3-b][1,4]oxazin-3-one]	> 7.01
COc1nc(C)c2c(c1C)CC(CNCCC1CN(c3ccc4c(n3)NC(=O)CO4)C(=O)O1)C2 (stereo not shown) [Example 106, 6-[5-[2-[(3-methoxy-1,4-dimethyl-6,7-dihydro-5H-cyclopenta[c]pyridin-6-yl)methylamino]ethyl]-2-oxo-1,3-oxazolidin-3-yl]-4H-pyrido[3,2-b][1,4]oxazin-3-one]	6.59
C[C@H](N)COc1cc(F)c2c(c1)CC(CN1CCC3(CC1)CN(c1cnc4c(n1)NC(=O)CO4)C(=O)O3)C2 (stereo partly drawn) [Example 356, 6-[8-[[6-[(2S)-2-aminopropoxy]-4-fluoro-2,3-dihydro-1H-inden-2-yl]methyl]-2-oxo-1-oxa-3,8-diazaspiro[4.5]decan-3-yl]-4H-pyrazino[2,3-b][1,4]oxazin-3-one; formic acid]	> 7.01
O=C1COc2ccc(N3CC(CCNCC4Cc5cncc(F)c5C4)OC3=O)nc2N1 (stereo not shown) [Example 288, 6-[5-[2-[(4-fluoro-6,7-dihydro-5H-cyclopenta[c]pyridin-6-yl)methylamino]ethyl]-2-oxo-1,3-oxazolidin-3-yl]-4H-pyrido[3,2-b][1,4]oxazin-3-one]	> 7.01
O=C1COc2ccc(N3CC(CCNCC4Cc5cccc(Cl)c5C4)OC3=O)cc2N1 (stereo not shown) [Example 15, 6-[5-[2-[(4-chloro-2,3-dihydro-1H-inden-2-yl)methylamino]ethyl]-2-oxo-1,3-oxazolidin-3-yl]-4H-1,4-benzoxazin-3-one; formic acid]	6.73
NC1CC(NCC2Cc3ccnc(Cl)c3C2)CCC12CN(c1ccc3c(n1)NC(=O)CO3)C(=O)O2 (racemic) [Example 206, 6-[rac-5,6-cis-5,8-trans-6-amino-8-[(1-chloro-6,7-dihydro-5H-cyclopenta[c]pyridin-6-yl)methylamino]-2-oxo-1-oxa-3-azaspiro[4.5]decan-3-yl]-4H-pyrido[3,2-b][1,4]oxazin-3-one]	5.94
N[C@H](CO)COc1ncc2c(c1Cl)CC(CNCCC1CN(c3ccc4c(n3)NC(=O)CO4)C(=O)O1)C2 (stereo partly drawn) [Example 237, 6-[5-[2-[[4-Chloro-3-[(2R)-2-amino-3-hydroxypropoxy]-6,7-dihydro-5H-cyclopenta[c]pyridin-6-yl]methylamino]ethyl]-2-oxo-1,3-oxazolidin-3-yl]-4H-pyrido[3,2-b][1,4]oxazin-3-one]	6.85

Same assay, conditions: strain Escherichia coli ATCC 25922; 10-point broth dilution, optical density at 600 nm over 16 h; read-out: Escherichia coli growth inhibition IC50

SMILES	pIC50
Cc1ncc(F)c2c1CC(CN1CCC3(CN(c4ccc5c(n4)NC(=O)CO5)C(=O)O3)C(CN)C1)C2 (racemic) [Example 251, 6-[rac-5,6-cis-6-(Aminomethyl)-8-[(4-fluoro-1-methyl-6,7-dihydro-5H-cyclopenta[c]pyridin-6-yl)methyl]-2-oxo-1-oxa-3,8-diazaspiro[4.5]decan-3-yl]-4H-pyrido[3,2-b][1,4]oxazin-3-one]	6.17
N#Cc1cccc2c1CC(NC1CCC3(CN(c4ccc5c(n4)NC(=O)CO5)C(=O)O3)C(N)C1)C2 (racemic) [Example 166, 2-[[rac-5,6-cis-5,8-trans-6-amino-2-oxo-3-(3-oxo-4H-pyrido[3,2-b][1,4]oxazin-6-yl)-1-oxa-3-azaspiro[4.5]decan-8-yl]amino]-2,3-dihydro-1H-indene-4-carbonitrile]	6.76
Cc1ncc(C#N)c2c1CC(NCCCc1cn(-c3cnc4c(n3)NC(=O)CO4)c(=O)o1)C2 (single isomer, unassigned; enantiomer b) [Example 322, 1-Methyl-6-[3-[2-oxo-3-(3-oxo-4H-pyrazino[2,3-b][1,4]oxazin-6-yl)-1,3-oxazol-5-yl]propylamino]-6,7-dihydro-5H-cyclopenta[c]pyridine-4-carbonitrile, Enantiomer B]	> 7.01
